Where two headings read alike, the source gives them in different places.
Key:
[1] = Fraction unbound (fu) in human plasma; type: in vitro ADME
pKa = type: physicochemical
Source text: TABLE 1 Model development and model parameters. | column: Value

CYP2C9 [2] = target: T1, CYP2C9 (Homo sapiens, UniProt P11712); assay: CYP2C9 inhibition in human liver microsomes (diclofenac probe)
Method: Ki=IC50/1+S/Km (1) Where IC50 signifies the half-maximum inhibitory concentration; S, the concentration of P450 marker substrate; and K m , the Michaelis constant within the Michaelis-Menten equation, which is in turn used to characterize substrate-enzyme binding kinetics.
The Michaelis constant (K m ) of CYP2C9 incubated with diclofenac was obtained from reported data ([Lee et al., 2014]). Methods used to calculate the Ki of CYP2C19 and CYP2C9 were similar.

CYP1A2 = CYP1A2 mRNA induction in cultured human hepatocytes; type: cell-based; settings: in vitro studies
CYP2B6 = CYP2B6 mRNA induction in cultured human hepatocytes; type: cell-based; settings: for EC50: human, cultured human hepatocytes
[3] = PBPK model parameters optimized or assumed (Simcyp minimal PBPK); design: species or system human
Source text: The first-order absorption model has different absorption rate constants (ka) and fraction available from dosage form (fa) to simulate absorption processes in fasting and fed states. […] Caco-2 (human colorectal adenocarcinoma) cells are used to model the intestinal epithelial barrier. The Simcyp (Version 19.0, Certara Inc., Sheffield, UK) minimal PBPK, which treats all organs other than the intestine and liver as a single compartment ([Rowland Yeo et al., 2010]), was selected, along with a single adjusting compartment (SAC) distribution model. The SAC is a nonphysiologic compartment that permits adjustment to the drug concentration profile in the systemic compartment ([Ke et al., 2016]).

[4] = Food effect clinical study in Chinese patients with CML (NCT03882281); type: in vivo, human
Source text: In the first study, on food effects, 12 Chinese patients with CML were randomly divided into two groups (A and B) and the experiments divided into two periods. […] After a seven- day washout period, subjects in both groups took the drug interchangeably in period 2 (NCT03882281).

OATP1B1 = target: T2, OATP1B1 (Homo sapiens, UniProt Q9Y6L6); assay: Transporter substrate/inhibitor assessment, OATP1B1; type: in vitro ADME
T2 sequence (Q9Y6L6 1-691): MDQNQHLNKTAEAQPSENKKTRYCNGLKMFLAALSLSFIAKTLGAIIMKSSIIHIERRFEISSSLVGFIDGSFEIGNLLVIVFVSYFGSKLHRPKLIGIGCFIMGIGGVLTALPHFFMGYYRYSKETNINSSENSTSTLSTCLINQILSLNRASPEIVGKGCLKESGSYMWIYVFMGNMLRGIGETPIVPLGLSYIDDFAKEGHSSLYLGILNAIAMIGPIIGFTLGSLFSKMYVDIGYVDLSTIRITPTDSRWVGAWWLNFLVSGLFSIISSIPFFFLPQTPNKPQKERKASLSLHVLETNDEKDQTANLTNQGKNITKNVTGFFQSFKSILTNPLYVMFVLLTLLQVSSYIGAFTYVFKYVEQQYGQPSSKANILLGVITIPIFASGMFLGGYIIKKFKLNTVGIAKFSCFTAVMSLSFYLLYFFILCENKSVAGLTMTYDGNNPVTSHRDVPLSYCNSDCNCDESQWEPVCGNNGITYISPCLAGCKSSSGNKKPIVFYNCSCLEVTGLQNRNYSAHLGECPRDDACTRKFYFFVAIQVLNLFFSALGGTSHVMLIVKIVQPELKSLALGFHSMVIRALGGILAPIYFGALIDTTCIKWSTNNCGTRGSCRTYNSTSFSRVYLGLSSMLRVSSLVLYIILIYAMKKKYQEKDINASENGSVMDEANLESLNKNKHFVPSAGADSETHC

P-gp = P-gp (Homo sapiens, UniProt P08183); assay: P-gp substrate and in vivo inhibition assessment
Source text: (§1) The effects of transporters expressed on the gut and liver have not been investigated.

[5] = target: T3, BCRP (breast cancer resistance protein) (Homo sapiens, UniProt Q9UNQ0); assay: BCRP substrate and in vivo inhibition assessment
T3 sequence (Q9UNQ0 1-655): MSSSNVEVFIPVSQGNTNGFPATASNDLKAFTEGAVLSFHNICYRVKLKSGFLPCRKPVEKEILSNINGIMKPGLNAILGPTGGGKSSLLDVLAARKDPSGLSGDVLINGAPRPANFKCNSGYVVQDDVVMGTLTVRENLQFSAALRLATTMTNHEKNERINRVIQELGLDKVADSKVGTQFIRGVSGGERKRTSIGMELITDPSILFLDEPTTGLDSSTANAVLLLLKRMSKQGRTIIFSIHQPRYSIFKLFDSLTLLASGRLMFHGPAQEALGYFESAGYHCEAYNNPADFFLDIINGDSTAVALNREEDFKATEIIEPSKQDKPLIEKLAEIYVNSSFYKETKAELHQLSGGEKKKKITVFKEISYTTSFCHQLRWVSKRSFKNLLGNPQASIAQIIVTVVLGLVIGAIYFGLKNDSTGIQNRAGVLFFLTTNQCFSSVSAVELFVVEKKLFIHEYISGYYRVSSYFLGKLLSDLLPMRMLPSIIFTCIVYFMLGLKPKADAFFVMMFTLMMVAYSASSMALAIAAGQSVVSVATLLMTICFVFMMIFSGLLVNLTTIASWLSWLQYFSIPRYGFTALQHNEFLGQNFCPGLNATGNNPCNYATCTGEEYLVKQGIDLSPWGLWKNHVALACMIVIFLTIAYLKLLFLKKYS
Source text: as §1

CYP2C9 [6] = target: T1, CYP2C9; assay: Intrinsic clearance in human recombinant CYP2C9
[7] = Fasting, optimized based on observed data
[8] = Fed, optimized based on observed data
[9] = optimized based on observed data
[10] = Chinese CML patients, fed, 30 mg SD

T1 sequence (P11712 whole entry): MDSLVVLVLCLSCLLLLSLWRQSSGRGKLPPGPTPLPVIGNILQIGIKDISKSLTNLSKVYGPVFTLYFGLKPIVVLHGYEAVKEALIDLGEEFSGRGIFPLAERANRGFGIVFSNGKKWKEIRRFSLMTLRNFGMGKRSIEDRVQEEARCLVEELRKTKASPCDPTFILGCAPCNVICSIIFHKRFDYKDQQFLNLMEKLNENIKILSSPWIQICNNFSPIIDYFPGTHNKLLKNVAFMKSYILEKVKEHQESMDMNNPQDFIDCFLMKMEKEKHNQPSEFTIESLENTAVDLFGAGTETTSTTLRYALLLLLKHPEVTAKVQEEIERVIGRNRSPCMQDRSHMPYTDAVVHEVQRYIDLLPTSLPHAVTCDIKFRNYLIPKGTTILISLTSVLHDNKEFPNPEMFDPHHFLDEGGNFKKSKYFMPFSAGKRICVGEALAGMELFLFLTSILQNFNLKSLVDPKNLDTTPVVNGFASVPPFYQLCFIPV
P-gp, sequence (P08183 whole entry): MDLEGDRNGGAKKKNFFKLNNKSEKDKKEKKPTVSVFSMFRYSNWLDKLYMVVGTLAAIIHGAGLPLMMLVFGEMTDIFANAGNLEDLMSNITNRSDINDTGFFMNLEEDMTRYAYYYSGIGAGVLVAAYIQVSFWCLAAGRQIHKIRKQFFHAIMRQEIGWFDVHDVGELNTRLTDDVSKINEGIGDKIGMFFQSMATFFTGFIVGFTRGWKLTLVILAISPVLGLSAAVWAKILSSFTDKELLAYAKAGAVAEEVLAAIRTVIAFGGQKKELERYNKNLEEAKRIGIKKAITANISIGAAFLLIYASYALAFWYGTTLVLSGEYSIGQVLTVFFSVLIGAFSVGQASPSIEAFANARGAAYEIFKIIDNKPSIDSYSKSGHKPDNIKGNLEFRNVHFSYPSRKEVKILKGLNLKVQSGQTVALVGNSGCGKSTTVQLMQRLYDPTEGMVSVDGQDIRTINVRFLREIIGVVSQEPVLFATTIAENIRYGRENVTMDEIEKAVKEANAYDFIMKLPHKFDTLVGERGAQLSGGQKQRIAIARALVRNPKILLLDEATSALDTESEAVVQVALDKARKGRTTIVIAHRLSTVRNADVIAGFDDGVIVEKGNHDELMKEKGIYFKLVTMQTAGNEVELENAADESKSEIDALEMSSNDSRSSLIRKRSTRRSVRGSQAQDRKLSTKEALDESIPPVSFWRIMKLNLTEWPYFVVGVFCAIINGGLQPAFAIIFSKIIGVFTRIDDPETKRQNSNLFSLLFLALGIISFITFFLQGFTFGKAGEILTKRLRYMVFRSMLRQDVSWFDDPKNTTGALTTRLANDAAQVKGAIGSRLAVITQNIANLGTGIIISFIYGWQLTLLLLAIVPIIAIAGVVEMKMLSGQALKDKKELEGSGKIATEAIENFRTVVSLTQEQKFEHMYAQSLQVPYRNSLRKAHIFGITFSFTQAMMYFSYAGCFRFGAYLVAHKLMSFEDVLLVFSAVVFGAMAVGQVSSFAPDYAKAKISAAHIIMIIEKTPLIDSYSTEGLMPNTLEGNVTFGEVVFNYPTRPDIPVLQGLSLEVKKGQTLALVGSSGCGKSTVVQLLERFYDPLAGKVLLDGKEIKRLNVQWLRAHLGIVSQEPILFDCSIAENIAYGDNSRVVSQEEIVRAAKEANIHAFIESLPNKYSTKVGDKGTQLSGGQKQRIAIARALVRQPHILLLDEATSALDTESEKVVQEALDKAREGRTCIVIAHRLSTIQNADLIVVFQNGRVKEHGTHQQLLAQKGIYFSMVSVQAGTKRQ

## Cc1ccc(C(=O)Nc2ccc(CN3CCN(C)CC3)c(C(F)(F)F)c2)cc1C#Cc1cnc2[nH]ncc2c1 [olverembatinib, Olverembatinib]
[1]; mean of three test concentrations, read-out: mean fu (fu,p, fraction unbound in plasma)
  fraction unbound: 0.0005
[1]; test concentration 80 ng/ml, read-out: fu (N=3)
  fraction unbound at 80 ng/ml: 0.0007
[1]; test concentration 400 ng/ml, read-out: fu (N=3)
  fraction unbound at 400 ng/ml: 0.0004
[1]; test concentration 4000 ng/ml, read-out: fu (N=3)
  fraction unbound at 4000 ng/ml: 0.0004
pKa; read-out: pKa 1
  pKa: 2.9
pKa; read-out: pKa 2
  pKa: 10.9
CYP2C9 [2]
  Ki: 1140 nM
CYP2C9 [2]; microsomes
  CYP2C9 inhibition, strength: weak
CYP1A2
  CYP1A2 induction, strength: weak
CYP2B6; CYP2B6 mRNA, lot AIH, read-out: EC50
  EC50: 828 nM
CYP2B6; CYP2B6 mRNA, lot HUM182851, read-out: EC50
  EC50: 290 nM
CYP2B6; human hepatocytes, mRNA, mean of two lots, read-out: IndC50 CYP2B6 (Mean EC50)
  EC50: 559 nM
CYP2B6; in vitro studies
  CYP2B6 induction, strength: weak
[3]; [7]
  fa: 0.574 (Fasting)
  ka: 0.213 (Fasting) 1/h
[3]; [8]
  fa: 0.8 (Fed)
  ka: 0.136 (Fed) 1/h
[3]; human, microsomal incubation, assumed equal to fu,p, read-out: fu,mic/fu,inc
  fraction unbound: 0.0005
[3]; human, optimized based on observed data, read-out: Kp Scalar
  Kp: 6.01
[3]; optimized based on fmCYP2C9
  ISEF CYP2C9: 1.2938
[3]; optimized based on fmCYP3A4
  ISEF CYP3A4: 0.7761
[3]; [9]
  SAC kin: 0.0471 h⁻¹
  SAC kout: 0.0177 h⁻¹
  Vsac: 38.02 L/kg
[4]; Chinese CML patients, fasting, 30 mg SD
  AUC Obs.: 237 h?ng/mL
[4]; [10]
  AUC Obs.: 276 h?ng/mL
  Tmax Obs. (median): 6.00 h
[4]; human, plasma, 30 mg, oral, patients with CML, data on file, read-out: mean apparent terminal elimination half-life (t1/2) (converted)
  half-life: 32.7 h
[4]; human, plasma, 30 mg, oral, patients with CML, data on file, read-out: median time to reach peak plasma concentration (Tmax)
  Tmax: 6 h
[4]; human, plasma, oral, 30 mg, Chinese CML patients, fasting, 30 mg SD
  Cmax: 8.72 ng/mL
[4]; human, plasma, oral, 30 mg, Chinese CML patients, fed, 30 mg SD
  Cmax: 10.8 ng/mL
[4]; human, plasma, oral, Chinese CML patients, fasting, 30 mg SD, read-out: Tmax Obs. (median)
  Tmax: 6 h
OATP1B1
  substrate or inhibitor of OATP1B1: neither a substrate nor inhibitor
P-gp
  in vivo inhibition on P-gp: no obvious in vivo inhibition
  substrate of P-gp: is a substrate
[5]
  in vivo inhibition on BCRP: no obvious in vivo inhibition
  substrate of BCRP: is a substrate
CYP2C9 [6]
  CLint CYP2C9: 0.022 µL/min/pmol CYP
